A word on the IC50: it is the concentration that gives 50% inhibition. A lower IC50 goes with inhibition by little substance.

The target in assay [1] is Nitric oxide synthase oxygenase [E25A,E26A,E316A] (Bacillus subtilis, UniProt O34453, E25A/E26A/E316A). As to the kind of experiment: bBiDomain assay. The method, then: (§1) Reactions were carried out using the buffered solution reported for the three-component reaction. The bBiDomain reactions included 100 nm bBiDomain and either YumC or FLDR at 1 μm; except for reactions in which YumC concentrations were varied. For inhibition assays, inhibitors were added at 30 μm. Similar to the three-component reaction, bBiDomain reactions were initiated with NADPH at a final concentration of 400 μm, quenched by thermal denaturation, and analyzed by Griess reaction.

The target in assay [2] is Nitric oxide synthase oxygenase [E25A,E26A,I218V,E316A] (Bacillus subtilis, UniProt O34453, E25A/E26A/E316A/I218V). As to the kind of experiment: bBiDomain assay. The method, then:
as §1

On to `Cc1cc(N)nc2ccccc12`, for which the figures for the IC50 in assay [1] and in assay [2] were 36.6 µM and 53.3 µM, respectively.

(Values after BindingDB's records for doi:10.1021/acs.biochem.6b00786 (University of California Irvine, 2016).)
